Values quoted from earlier work as cited in patent US20210267908A1, “PHARMACEUTICAL COMPOSITIONS OF RIVAROXABAN” (MANKIND PHARMA LTD., priority 2020, published 2021).

## O=C(NC[C@H]1CN(c2ccc(N3CCOCC3=O)cc2)C(=O)O1)c1ccc(Cl)s1 [Rivaroxaban, 5-Chloro-N-({(5S)-2-oxo-3-[4-(3-oxo-4-morpholinyl)phenyl]-1,3-oxazolidin-5-yl}methyl)-2-thiophenecarboxamide]
Aqueous media at 25° C.
  amount pH-independently soluble in aqueous media: 5-7 mg/L
Organic solvents (e.g. acetone, polyethylene glycol 400)
  solubility in organic solvents: only slightly soluble
Water and aqueous media with pH 1-9
  solubility in water and aqueous media: practically insoluble
